Tests used:
PARP2 = molecular target: T1, PARP2 (Homo sapiens, UniProt Q9UGN5); test: PARP2 enzymatic inhibition assay (PARP2 Colorimetric Assay Kit); format: biochemical
T1 construct: purchased BPS Bioscience 80581
Protocol: Briefly, the 1× histone mixture was added to each well and incubated overnight at 4 °C. Each well was washed three times with 200 µL 1× TBST buffer and filled with 200 µL Blocking buffer at room temperature for 90 min. Then, each well was filled with 25 µL of PARP master mixture (5 μL activated DNA + 2.5 μL 10× PARP Assay mixture + 2.5 μL 10× PARP buffer + 15 μL distilled water). Next, 5 µL of the compound of different concentrations was added to each well, and PARP enzyme was added and incubated at room temperature for 1 h. Next, streptavidin HRP solution was added and incubated at room temperature for 30 min. After adding 100 µL of colorimetric HRP substrate to each well, the plate was incubated until a blue color developed in the positive well, which contained PARP enzyme without inhibitors. The reaction was then quenched with 2 M sulfuric acid, and absorbance at 450 nm was measured using a microplate reader (BioTek, Winooski, VT, USA). After calculating the inhibition rate, the IC50 value was determined.

recombinant HDAC1 = molecular target: T2, recombinant HDAC1 (Homo sapiens, UniProt Q13547); test: HDAC1 inhibition assay (Ac-peptide-AMC fluorescence); format: biochemical
T2 construct: purchased Active Motif
Protocol: The in vitro HDAC inhibition assays were carried out by Sundia MediTech Co. Ltd. in Shanghai, China. […] Reactions were stopped with trypsin, and the samples were incubated for another 90 min at 37 °C. […] IC50 values were obtained using GraphPad Prism software.

RAD51 = test: Western blot of RAD51 expression in TNBC cells; format: cell-based, human; settings: 2.5 μM compared with the positive controls at 5 μM, 24 h
Protocol: (§1) Western blot analysis was performed as previously described, and all western blot analyses were performed at least three times.
(§2) Western blot analysis was performed as previously described. Briefly, whole cell or tissue lysates were prepared using ice-cold Nonidet P-40 buffer mixed with protease and phosphatase inhibitors (Roche, IN, USA) and centrifuged at 14,000 × g at 4 °C for 10 min. The protein lysates were fractionated by sodium dodecyl sulfate–polyacrylamide gel electrophoresis (SDS–PAGE) and transferred to polyvinylidene fluoride (PVDF) membranes (Merck, Darmstadt, Germany). Membranes were incubated in 1× TBST buffer containing 5% nonfat powdered milk at room temperature for 2 h. The indicated primary antibody was incubated with PVDF membranes, followed by a washing step using 1× TBST and a secondary antibody conjugated to HRP. Signal detection was carried out using the Western ECL Substrate kit (Bio-Rad, Hercules, CA, USA). […]

MCF-7 cells = test: MTT cell viability assay, MCF-7; settings: Homo sapiens, MCF7, 72 h, read-out: IC50 MCF-7
Protocol: (§3) The viability assay was measured by a 3-(4,5-dimethylthiazol-2-yl)−2,5-diphenyltetrazolium bromide (MTT) assay.
(§4) In brief, cells were seeded at a density of 6,000 cells in 96-well plates and cultured overnight. […] After aspiration of the medium, the formazan crystals were dissolved in 100 μL of DMSO. The absorbance at 490 nm was measured using a microplate reader (BioTek). All these analyses were performed at least three times.

MCF-10A cells = test: MTT cell viability assay, MCF-10A; settings: Homo sapiens, 72 h, read-out: IC50 MCF-10A
Protocol: as §3, §4

MDA-MB-436 cells = test: MTT cell viability assay, MDA-MB-436; settings: Homo sapiens, MDA-MB-436, 72 h, read-out: IC50 MDA-MB-436
Protocol: as §3, §4

MDA-MB-231 cells = test: MTT cell viability assay, MDA-MB-231; settings: Homo sapiens, MDA-MB-231, 72 h, read-out: IC50 MDA-MB-231
Protocol: as §3, §4

[1] = tested on: cGAS–STING signaling pathway; test: Western blot of cGAS–STING pathway activation; format: cell-based, human; settings: MDA-MB-436 cells, 48 h
Protocol: as §1, §2

T1 sequence (Q9UGN5 whole entry): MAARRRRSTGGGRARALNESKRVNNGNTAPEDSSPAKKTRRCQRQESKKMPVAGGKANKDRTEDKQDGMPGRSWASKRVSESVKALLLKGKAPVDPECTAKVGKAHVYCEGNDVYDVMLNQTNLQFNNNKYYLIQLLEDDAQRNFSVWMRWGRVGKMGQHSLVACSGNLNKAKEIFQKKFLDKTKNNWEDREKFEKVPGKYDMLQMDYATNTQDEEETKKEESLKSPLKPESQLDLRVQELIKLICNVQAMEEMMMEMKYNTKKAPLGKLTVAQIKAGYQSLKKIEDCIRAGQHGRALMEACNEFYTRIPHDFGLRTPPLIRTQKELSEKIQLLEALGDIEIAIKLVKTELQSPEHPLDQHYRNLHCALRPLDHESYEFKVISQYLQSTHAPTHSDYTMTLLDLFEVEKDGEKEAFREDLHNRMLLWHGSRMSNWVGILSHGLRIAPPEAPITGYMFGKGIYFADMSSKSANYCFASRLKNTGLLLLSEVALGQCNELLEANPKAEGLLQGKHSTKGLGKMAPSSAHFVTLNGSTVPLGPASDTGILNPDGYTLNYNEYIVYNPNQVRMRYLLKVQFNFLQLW
T2 sequence (Q13547 whole entry): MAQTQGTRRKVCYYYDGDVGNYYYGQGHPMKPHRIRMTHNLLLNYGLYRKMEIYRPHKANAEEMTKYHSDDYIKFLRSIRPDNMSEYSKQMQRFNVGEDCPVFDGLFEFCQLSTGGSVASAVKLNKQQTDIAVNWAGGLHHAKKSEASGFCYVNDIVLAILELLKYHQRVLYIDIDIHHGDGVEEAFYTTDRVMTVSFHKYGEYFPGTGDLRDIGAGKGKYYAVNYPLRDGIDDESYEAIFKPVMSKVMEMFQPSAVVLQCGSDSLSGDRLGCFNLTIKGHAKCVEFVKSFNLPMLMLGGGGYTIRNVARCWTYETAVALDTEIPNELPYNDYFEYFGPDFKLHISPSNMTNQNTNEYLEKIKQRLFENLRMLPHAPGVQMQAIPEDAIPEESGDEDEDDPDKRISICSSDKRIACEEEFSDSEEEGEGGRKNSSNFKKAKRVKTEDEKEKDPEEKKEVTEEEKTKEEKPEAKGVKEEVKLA

| IC50 (PARP2) [nM] | IC50 (recombinant HDAC1) [nM] | IC50 (MCF-7 cells) [nM] | IC50 (MDA-MB-436 cells) [nM] | IC50 (MDA-MB-231 cells) [nM] | Structure (SMILES) | inhibitory effect on RAD51 (RAD51) | IC50 (MCF-10A cells) [nM] | activation of the cGAS–STING signaling pathway [1] |
| --- | --- | --- | --- | --- | --- | --- | --- | --- |
| 2.13 | 1690 | 13400 ± 3200 | 160 ± 50 | 160 ± 20 | Nc1cc(F)ccc1NC(=O)/C=C/c1ccc(CN2CCN(C(=O)c3cc(Cc4n[nH]c(=O)c5ccccc45)ccc3F)CC2)cc1 [Compound B102] | more potent inhibitory effect on RAD51 | 13700 ± 230 |  |
| 57 | > 10000 | 4930 ± 1090 | 4120 ± 1020 | 2830 ± 400 | Nc1cc(F)ccc1NC(=O)CCc1ccc(CN2CCN(C(=O)c3cc(Cc4n[nH]c(=O)c5ccccc45)ccc3F)CC2)cc1 [Compound B302] |  | 36800 ± 6590 | concentration-dependent activation |

— publication PMC10770036, “Novel dual inhibitors of PARP and HDAC induce intratumoral STING-mediated antitumor immunity in triple-negative breast cancer” (Cell Death & Disease, 2024)
